Data: PubChem BioAssay AID248 (DTP/NCI, 2004)
Several values for one entry are separate records, joined by “and”; a condition that tells them apart may be missing. Equal entries are not always repeated. Toxic doses and inconclusive results are not listed. Cut-off read from the data, not from the text of the source: active = T/C of 150% or more; inactive = T/C below 125%.

System: L1210 leukemia ip in BDF1 mice, survival T/C
Experiment: NCI In Vivo Anticancer Drug Screen. Data for tumor model L1210 Leukemia (intraperitoneal) in B6D2F1 (BDF1) mice
Details: endpoint: mean survival time, higher = longer survival
In short: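 Antitumor effect is assessed in tumor-bearing animals. Survival in the compound arm is compared with a vehicle-dosed control arm and expressed as their quotient.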

[1] = dose: 100.0 mg/kg/injection, schedule: Q04DX002 (ip), vehicle: Klucel (hydroxypropylcellulose) (HPC)
[2] = dose: 200.0 mg/kg/injection, schedule: Q04DX002 (ip), vehicle: Klucel (hydroxypropylcellulose) (HPC)
[3] = dose: 400.0 mg/kg/injection, schedule: Q04DX002 (ip), vehicle: Klucel (hydroxypropylcellulose) (HPC)
[4] = dose: 100.0 mg/kg/injection, schedule: Q01DX001 (ip), vehicle: carboxymethylcellulose (CMC)
[5] = dose: 100.0 mg/kg/injection, schedule: Q01DX001 (ip), vehicle: saline
[6] = dose: 200.0 mg/kg/injection, schedule: Q01DX001 (ip), vehicle: carboxymethylcellulose (CMC)
[7] = dose: 200.0 mg/kg/injection, schedule: Q01DX001 (ip), vehicle: saline
[8] = dose: 400.0 mg/kg/injection, schedule: Q01DX001 (ip), vehicle: carboxymethylcellulose (CMC)
[9] = dose: 400.0 mg/kg/injection, schedule: Q01DX001 (ip), vehicle: saline
[10] = dose: 100.0 mg/kg/injection, schedule: Q01DX009 (ip), vehicle: saline
[11] = dose: 200.0 mg/kg/injection, schedule: Q01DX009 (ip), vehicle: saline
[12] = dose: 400.0 mg/kg/injection, schedule: Q01DX009 (ip), vehicle: saline
[13] = dose: 100.0 mg/kg/injection, schedule: Q04DX002 (ip), vehicle: saline
[14] = dose: 200.0 mg/kg/injection, schedule: Q04DX002 (ip), vehicle: saline
[15] = dose: 400.0 mg/kg/injection, schedule: Q04DX002 (ip), vehicle: saline
[16] = dose: 100.0 mg/kg/injection, schedule: Q01DX009 (ip), vehicle: Klucel (hydroxypropylcellulose) (HPC)
[17] = dose: 200.0 mg/kg/injection, schedule: Q01DX009 (ip), vehicle: Klucel (hydroxypropylcellulose) (HPC)
[18] = dose: 100.0 mg/kg/injection, schedule: Q04DX003 (ip), vehicle: Klucel (hydroxypropylcellulose) (HPC)
[19] = dose: 200.0 mg/kg/injection, schedule: Q04DX003 (ip), vehicle: Klucel (hydroxypropylcellulose) (HPC)
[20] = dose: 400.0 mg/kg/injection, schedule: Q04DX003 (ip), vehicle: Klucel (hydroxypropylcellulose) (HPC)
[21] = dose: 50.0 mg/kg/injection, schedule: Q01DX001 (ip), vehicle: carboxymethylcellulose (CMC)

Measured: T/C

CC(C)Cc1cc(C#N)cc(C(C)(C)C)c1O
inactive: [1] 100 % of control | [2] 100 % of control | [3] 103 % of control

O=C(Nc1ccc(Cl)cc1)N1CC1
inactive: dose: 12.5 mg/kg/injection, schedule: Q04DX003 (ip), vehicle: Klucel (hydroxypropylcellulose) (HPC) 92 % of control | dose: 25.0 mg/kg/injection, schedule: Q04DX003 (ip), vehicle: Klucel (hydroxypropylcellulose) (HPC) 94 % of control | dose: 50.0 mg/kg/injection, schedule: Q04DX003 (ip), vehicle: Klucel (hydroxypropylcellulose) (HPC) 98 % of control

Cc1ccc(S(=O)(=O)OC2CCCC3CC(=O)CCC32C)cc1 (configuration not stated)
inactive: dose: 50.0 mg/kg/injection, schedule: Q01DX001 (ip), vehicle: saline 101 % of control | [4] 103 % of control | [5] 101 % of control | [6] 105 % of control | [7] 95 % of control | [8] 103 % of control | [9] 98 % of control

C1CN(CCN2CCOCC2)CCO1
inactive: [10] 100 % of control | [11] 93 % of control | [12] 96 % of control

Nc1nc(N)c(N=Nc2ccc(S(=O)(=O)Nc3ccccn3)cc2)c(=O)[nH]1
inactive: [5] 94 % of control | [7] 94 % of control | [9] 94 % of control

COC1(OC)C2CCC1C1OC12 (configuration not stated)
inactive: [13] 107 % of control | [14] 97 % of control | [15] 97 % of control

O=C1c2cccc3c([N+](=O)[O-])ccc(c23)C(=O)N1Cc1ccco1
inactive: [1] 108 % of control | [2] 97 % of control | [3] 102 % of control

C=CCOCC1CO1 (configuration not stated)
inactive: dose: 75.0 mg/kg/injection, schedule: Q01DX001 (ip), vehicle: acetone 101 % of control | dose: 150.0 mg/kg/injection, schedule: Q01DX001 (ip), vehicle: acetone 97 % of control | dose: 300.0 mg/kg/injection, schedule: Q01DX001 (ip), vehicle: acetone 105 % of control

Clc1ccc(N=Cc2ccccc2Cl)cc1
inactive: dose: 100.0 mg/kg/injection, schedule: Q01DX009 (ip), vehicle: saline with Tween-80 94 % of control | dose: 200.0 mg/kg/injection, schedule: Q01DX009 (ip), vehicle: saline with Tween-80 92 % of control | dose: 400.0 mg/kg/injection, schedule: Q01DX009 (ip), vehicle: saline with Tween-80 89 % of control

O=C(Nc1cc(Cl)c(Cl)cc1Cl)Nc1cc(Cl)ccc1Oc1ccc(Cl)cc1S(=O)(=O)O
inactive: dose: 50.0 mg/kg/injection, schedule: Q04DX003 (ip), vehicle: alcohol 97 % of control | dose: 100.0 mg/kg/injection, schedule: Q04DX003 (ip), vehicle: alcohol 103 % of control | dose: 200.0 mg/kg/injection, schedule: Q04DX003 (ip), vehicle: alcohol 103 % of control

CC(=O)NCC(O)C(O)C(O)C(/C=N/Nc1ccccc1)=N/Nc1ccccc1 (configuration not stated)
inactive: dose: 50.0 mg/kg/injection, schedule: Q04DX002 (ip), vehicle: saline with Tween-80 88 % of control | dose: 100.0 mg/kg/injection, schedule: Q04DX002 (ip), vehicle: saline with Tween-80 92 % of control | dose: 200.0 mg/kg/injection, schedule: Q04DX002 (ip), vehicle: saline with Tween-80 98 % of control

NC(Cc1cnc(N=Nc2ccc(S(=O)(=O)N(CCCl)CCCl)cc2)[nH]1)C(=O)O (configuration not stated)
inactive: dose: 50.0 mg/kg/injection, schedule: Q01DX009 (ip), vehicle: Klucel (hydroxypropylcellulose) (HPC) 93 % of control | [16] 90 % of control | [17] 97 % of control

CCCCC(CCCC(=O)O)C(=O)O (configuration not stated)
inactive: [4] 93 % of control | [6] 96 % of control | [8] 98 % of control

CS(=O)(=O)NCC1OC(n2cnc3c(N)ncnc32)C(O)C1O (configuration not stated)
inactive: [5] 104 % of control | [7] 96 % of control | [9] 98 % of control

COc1ccc(C(C)(C#N)Nc2ccccc2)cc1 (configuration not stated)
inactive: dose: 100.0 mg/kg/injection, schedule: Q04DX003 (ip), vehicle: saline with Tween-80 98 % of control | dose: 200.0 mg/kg/injection, schedule: Q04DX003 (ip), vehicle: saline with Tween-80 96 % of control

NC(CSS(=O)(=O)O)=NCC12CC3CC(CC(C3)C1)C2
inactive: dose: 12.5 mg/kg/injection, schedule: Q04DX002 (ip), vehicle: Klucel (hydroxypropylcellulose) (HPC) 104 % of control | dose: 25.0 mg/kg/injection, schedule: Q04DX002 (ip), vehicle: Klucel (hydroxypropylcellulose) (HPC) 95 % of control

COC(=O)C1(C)CCCC2(C)C1CCC13CCC(C)(CCC21)C3O (configuration not stated)
inactive: [1] 103 % of control | [2] 92 % of control | [3] 92 % of control

CN(C(=O)N(C)c1ccccc1)c1ccccc1
inactive: [16] 102 % of control | [18] 103 % of control | [17] 96 % of control | [19] 103 % of control | dose: 400.0 mg/kg/injection, schedule: Q01DX009 (ip), vehicle: Klucel (hydroxypropylcellulose) (HPC) 95 % of control | [20] 103 % of control

CSc1cccc[n+]1[O-]
inactive: [10] 105 % of control | [13] 103 % of control and 108 % of control | [11] 108 % of control | [14] 105 % of control | [12] 101 % of control | [15] 108 % of control and 118 % of control

Nc1nc(N)nc(Cc2nc(N)nc(N)n2)n1
inactive: [21] 90 % of control | [4] 87 % of control | [6] 92 % of control | [8] 95 % of control

CN=C(N)c1cccc(NC(=O)c2ccc(C(=O)Nc3cccc(C(N)=NC)c3)cc2)c1
inactive: dose: 15.0 mg/kg/injection, schedule: Q01DX Z (ip), vehicle: saline 109 % of control | dose: 30.0 mg/kg/injection, schedule: Q01DX Z (ip), vehicle: saline 93 % of control

CCCCCCCCCCCCCCSc1ccc2ccccc2c1
inactive: [18] 92 % of control | [19] 86 % of control | [20] 87 % of control

CC(=O)OC1CC2C=CC1CC2 (configuration not stated)
inactive: [21] 111 % of control | [4] 101 % of control | [6] 95 % of control | [8] 101 % of control

O=C1C2C(C(=O)N1c1ccc(O)cc1)C1c3ccccc3C2C2CCCCN21 (configuration not stated)
inactive: dose: 12.5 mg/kg/injection, schedule: Q04DX003 (ip), vehicle: saline 102 % of control | dose: 25.0 mg/kg/injection, schedule: Q04DX003 (ip), vehicle: saline 103 % of control | dose: 50.0 mg/kg/injection, schedule: Q04DX003 (ip), vehicle: saline 102 % of control | dose: 100.0 mg/kg/injection, schedule: Q04DX003 (ip), vehicle: saline 100 % of control

N#Cc1ccc(Br)cc1[N+](=O)[O-]
inactive: dose: 6.25 mg/kg/injection, schedule: Q01DX009 (ip), vehicle: Klucel (hydroxypropylcellulose) (HPC) 103 % of control | [18] 89 % of control | [19] 86 % of control

O=[N+]([O-])c1ccc([As+](c2ccccc2)(c2ccccc2)c2ccccc2)cc1
inactive: dose: 10.0 mg/kg/injection, schedule: Q01DX001 (ip), vehicle: saline 88 % of control | dose: 20.0 mg/kg/injection, schedule: Q01DX001 (ip), vehicle: saline 92 % of control
